The results in this text go back to US12390440B2, “Immunomodulating trifluoromethyl-aminal azalides” (Zoetis Services LLC, priority 2020, dated 2025).

Molecules are shown by their SMILES. In brackets after ≈: the same amount, converted by molar mass. Where two headings read alike, the source gives them in different places.

One data set relates to TNF-α. Description: Bovine whole blood assay, LPS-induced TNF-α. To be noted: Bos taurus, fresh whole bovine blood, LPS 1 μg/mL. Type of data set: cell-based. As to the method:
(§1) (protected from light) for 30 minutes.

Another data set concerns IL-1β. Briefly: Bovine whole blood assay, IL-1β.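 Further: compound concentration at which rising IL-1β release signals cytotoxicity.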 The following applies: overstimulation of IL-1β, perceived cellular toxicity concentration. Type of data set: cell-based. The method, then:
as §1

For the next data set, the system named is P. multocida 46572. Briefly: In vivo mouse lung infection challenge model (murine efficacy). To be noted: 20 mg/kg subcutaneous; harmonized survival relative to vehicle and M9 controls; study ended Day 10. As to the method:
The challenge organism was P. multocida 46572. Target challenge concentration was 5×10^2 CFU/mouse. Isolated colonies from overnight growth (37° C. with 5% CO2) on trypticase soy agar (TSA II) blood plates were transferred to room temperature Brain Heart Infusion Broth (BHIB). The broth culture was incubated 3.5-4 hours to approximately mid-log phase of growth, as measured by forward light scatter at 600 nm (OD600, 0.200). The culture was centrifuged to collect the bacterial pellet. The pellet was re-suspended in BHIB and adjusted to provide an approximate concentration of 2.7 log^10 colony forming units (CFU) in 0.04 mL at the highest concentration. The challenge inoculum concentration was confirmed by serial dilutions of the inoculum for CFU enumeration. On Day −5, CD-1 female mice were received. Mice were given standard rodent diet and water ad libitum. On Day 0, bacterial inoculum (0.04 mL) was administered to each mouse (n=36) intranasally. Compounds of the invention were dosed at 20 mg/kg (0.1 mL) in a buffered (˜pH 5.4) propylene glycol, monothioglycerol and water solution by subcutaneous injection. Animals were observed from Days 1-10. The study was terminated on Day 10. In addition, some treatment groups were sampled at 6, 24, and 48 hours post bacterial challenge for RNA sequence analysis of lung tissue.
The murine efficacy model (P. multocida challenge) was optimized, and the treatment group size was powered to be able to observe statistically significant improvement of survival to expected ranges for immunomodulatory compounds. The experimental design was a randomized complete block design. Mice were individually identified and treatment groups comingled within a cage, with every treatment group equally represented across cages. Mortality was the primary variable. Mortality data was analyzed using a generalized mixed model with fixed effect of treatment and random effect of block. Survival time was also analyzed using the SAS PHREG (survival analysis) procedure to examine whether there were significant differences between treatment groups and the control group. Numerous compounds of the invention and M9 (positive control) were tested in this model at a dose of 20 mg/kg (Table 3). Typical percent survival for no treatment control is in the range of 0-20% based on study to study variation in challenge inoculum and rate of infection. […] Mouse survival for M9 was about 90-100%, further supporting its residual antibacterial properties against the bacterial strain. Harmonized survival accounts for % survival relative to vehicle (“−” control) and M9 (“+” control)) survival data (Table 3).

The test system of a further data set is E. coli. Description: MIC, E. coli. To be noted: Escherichia coli.
For another data set, the system named is S. aureus. Briefly: MIC, S. aureus. The following applies: Staphylococcus aureus.
Data set [1] deals with P. multocida. Description: MIC, P. multocida. To be noted: for MIC: Pasteurella multocida.
A further data set concerns M. haemolytica. Description: MIC, M. haemolytica. To be noted: for MIC: Mannheimia haemolytica.
In data set [2] the test system is BRD pathogens, M. haemolytica and P. multocida. Description: MIC screening panel, BRD pathogens (CLSI broth micro-dilution). To be noted: read-out: MIC flag (*) at Ex #. A general note: Dilution methods test growth across graded concentrations, often in twofold steps.
A further data set deals with IL-6. Briefly: Bovine whole blood assay, IL-6. The format is cell-based. To be noted: Bos taurus, fresh whole bovine blood, LPS 1 μg/mL. As to the method:
as §1

The subject of data set [3] is P. multocida. Briefly: Murine P. multocida intranasal challenge study, survival. The following applies: 5×10^3 CFU/mouse. The format is in vivo. As to the method: In one murine P. multocida intranasal challenge study, mice were administered tulathromycin (16 mg/kg; T02), M9 (32 mg/kg; T03), or ceftiofur (9 mg/kg; T04) by subcutaneous injection 18 hours after bacterial challenge (5×10^3 CFU/mouse) for lung tissue RNA sequence analysis. Survival at Day 7 was about 80%, 50%, and 90% for T02, T03, and T04, respectively, compared to placebo at 0%. Differential gene expression from total lung tissue RNA sequence analysis indicated at least 226 unique genes were up or down regulated (with significance) for T03. Output from ingenuity pathway analysis of these unique genes predicted major upstream regulators of the involved pathways. Data was analyzed based on the number of genes being modulated in the same direction that were associated with a given upstream regulator. An activation z-score of 2 or greater is considered significant and the direction change is indicated by + (activated) or − (inhibited). The top 5 pathways included: IL-9 signaling, glucocorticoid receptor signaling, prolactin signaling, JAK STAT signaling, and IL-17 signaling. The top 6 upstream regulators (activation z-score) included: lipopolysaccharide (−6.725), TNF (−4.669), IFNγ (−5.759), IL-1ß (−5.947), STAT1 (−2.787), and poly rI:rC-RNA (−5.289). Even though this study was run in the murine model, the top upstream regulators identified as being modulated by M9 include an almost ubiquitous overlap with the pathways identified in the natural disease study as being key mediators in BRD, and therefore is modulating highly relevant pathways in BRD pathobiology.

Another data set relates to H. somni. Description: MIC, H. somni. To be noted: H. somni strains.
Data set [4] deals with M. haemolytica (strain: OSU-012103-BHI). Description: Bovine M. haemolytica intratracheal lung challenge model. To be noted: bovine M. haemolytica challenge.
Setting [5] is: P. multocida 46572, murine efficacy challenge strain.
Setting [6] is: M. haemolytica 46571, bovine efficacy challenge strain.

As a reminder, the IC50 is the concentration needed to halve the response being measured. Lower therefore signals higher potency. The MIC is the smallest concentration in the dilution series that meets the test's criterion for growth inhibition. In the case of `CCCNC[C@]1(O)[C@H](C)O[C@@H](O[C@H]2[C@H](C)[C@@H](O[C@@H]3O[C@H](C)C[C@H]4[C@H]3OC(C(F)(F)F)N4C)[C@](C)(O)C[C@@H](C)CN[C@H](C)[C@@H](O)[C@](C)(O)[C@@H](CC)OC(=O)[C@@H]2C)C[C@@]1(C)OC` (stereo partly drawn) [Example A-1, (2R,3S,4R,5R,8R,10R,11R,12S,13S,14R)-11-(((3aR,4S,6R,7aS)-1,6-dimethyl-2-(trifluoromethyl)hexahydro-2H-pyrano[4,3-d]oxazol-4-yl)oxy)-2-ethyl-13-(((2R,4R,5S,6S)-5-((propylamino)methyl)-5-hydroxy-4-methoxy-4,6-dimethyltetrahydro-2H-pyran-2-yl)oxy)-3,4,10-trihydroxy-3,5,8,10,12,14-hexamethyl-1-oxa-6-azacyclopentadecan-15-one], the IC50 in the data set on TNF-α is < 3 µM. Moreover, in the data set on IL-1β, the “IL-1β OS of LPS” value was >500 µM. For the same compound, in the data set on P. multocida 46572, the “% Survival” value amounted to 43%. In addition, the MIC against E. coli (E. coli 25922) was > 64 mg/L; against E. coli (E. coli W3110), > 64 mg/L; against S. aureus, > 64 mg/L; against P. multocida [1] (P. multocida 43137) it was > 64 mg/L; in the data set with P. multocida [1] (setting [5]), 64 mg/L (≈ 73.4 µM); with P. multocida [1] (read-out: MIC flag (*) at Ex. #, P. multocida challenge strain (46572K), Table 3), < 64 mg/L. The MIC in the data set on M. haemolytica (M. haemolytica 12726) is > 64 mg/L; in the data set on M. haemolytica (M. haemolytica 33396), > 64 mg/L; against M. haemolytica (setting [6]), > 64 mg/L; in [2] it was < 64 mg/L.

On to `CC[C@H]1OC(=O)[C@H](C)[C@@H](O[C@H]2C[C@@](C)(OC)[C@](O)(CNCCO)[C@H](C)O2)[C@H](C)[C@@H](O[C@@H]2O[C@H](C)C[C@H]3[C@H]2OC(C(F)(F)F)N3C)[C@](C)(O)C[C@@H](C)CN[C@H](C)[C@@H](O)[C@]1(C)O` (stereo partly drawn) [Example A-3, (2R,3S,4R,5R,8R,10R,11R,12S,13S,14R)-11-(((3aR,4S,6R,7aS)-1,6-dimethyl-2-(trifluoromethyl)hexahydro-2H-pyrano[4,3-d]oxazol-4-yl)oxy)-2-ethyl-3,4,10-trihydroxy-13-(((2R,4R,5S,6S)-5-hydroxy-5-(((2-hydroxyethyl)amino)methyl)-4-methoxy-4,6-dimethyltetrahydro-2H-pyran-2-yl)oxy)-3,5,8,10,12,14-hexamethyl-1-oxa-6-azacyclopentadecan-15-one], for which the IC50 in the data set with TNF-α was 20 µM; in the data set on IL-6, 40 µM. Further, the “IL-1β OS of LPS” value in the data set with IL-1β was 32 µM. Besides, in the data set on P. multocida 46572, the “% Survival” value came to 11%. The MIC with E. coli (E. coli 25922), in the data set on E. coli (E. coli W3110), with S. aureus, with P. multocida [1] (P. multocida 43137), against P. multocida [1] (setting [5]) and against M. haemolytica (M. haemolytica 12726) was > 64 mg/L each time. The MIC against M. haemolytica (M. haemolytica 33396) and against M. haemolytica (setting [6]) was > 64 mg/L throughout.

On to `CO/N=C(\C(=O)N[C@@H]1C(=O)N2C(C(=O)O)=C(CSC(=O)c3ccco3)CS[C@H]12)c1csc(N)n1` [ceftiofur], for which the “Survival at Day 7” value in the data set with P. multocida [3] (9 mg/kg (T04) subcutaneous 18 hours after challenge) is on record as ~90%.

Regarding `CCN1CCN(c2cc3c(cc2F)c(=O)c(C(=O)O)cn3C2CC2)CC1` [enrofloxacin], in the data set with H. somni, the “MIC values, range over strains” value was <0.06 to 1 mg/L.

For `CS(=O)(=O)c1ccc([C@@H](O)[C@@H](CF)NC(=O)C(Cl)Cl)cc1` [florfenicol], the “MIC values, range over strains” value with H. somni is 0.12 to 2 mg/L.

`CCCN1C[C@H](C)[C@@H](O)[C@](C)(O)[C@@H](CC)OC(=O)[C@H](C)[C@@H](O[C@H]2C[C@@](C)(OC)[C@@H](O)[C@H](C)O2)[C@H](C)[C@@H](O[C@@H]2O[C@H](C)C[C@H](N(C)C)[C@H]2O)[C@](C)(O)C[C@H]1C` [gamithromycin, reference compound]: the entries for the “MIC values, range over strains” value with H. somni, in the data set on P. multocida [1] (the same P. multocida strains of the screening panel) and in the data set on M. haemolytica (the same M. haemolytica strains of the screening panel) were 0.25 to 8 mg/L, 1 to 2 mg/L and 0.5 to 1 mg/L, respectively.

With `CCCNC[C@]1(O)[C@H](C)O[C@@H](O[C@H]2[C@H](C)[C@@H](O[C@@H]3O[C@H](C)C[C@H](N(C)C)[C@H]3O)[C@](C)(O)C[C@@H](C)CN[C@H](C)[C@@H](O)[C@](C)(O)[C@@H](CC)OC(=O)[C@@H]2C)C[C@@]1(C)OC` [tulathromycin, (2R,3S,4R,5R,8R,10R,11R,12S,13S,14R)-11-(((2S,3R,4S,6R)-4-(dimethylamino)-3-hydroxy-6-methyltetrahydro-2H-pyran-2-yl)oxy)-2-ethyl-3,4,10-trihydroxy-13-(((2R,4R,5S,6S)-5-hydroxy-4-methoxy-4,6-dimethyl-5-((propylamino)methyl)tetrahydro-2H-pyran-2-yl)oxy)-3,5,8,10,12,14-hexamethyl-1-oxa-6-azacyclopentadecan-15-one], the “Survival at Day 7” value with P. multocida [3] (16 mg/kg (T02) subcutaneous 18 hours after challenge) is “about 80%”. The compound further registered a minimum inhibitory concentration (MIC) in the data set on S. aureus of 8 mg/L (≈ 9.92 µM). Moreover, the IL-6 levels entry in data set [4] was “significantly reduced”.
